US20120220604A1, “PIPERAZINYL-ALKYL-BENZOIMIDAZOL-2-ONE DERIVATIVES AND THEIR USE AS MONOAMINE NEUROTRANSMITTER RE-UPTAKE INHIBITORS” (NeuroSearch A/S, priority 2009, published 2012)
Counter-ions that a name gives are not always drawn.

What was measured:
[1] = target: T1, reuptake of serotonine (5-HT) in synaptosomes (Rattus norvegicus, UniProt P31652); test: Inhibition of 5-HT reuptake in synaptosomes; type: biochemical; conditions: 3H-5-HT, read-out: 5-HT-uptake IC50
T1 construct: in synaptosomes as described in WO 97/16451 (NeuroSearch A/S); from tissue
T1 sequence (P31652 whole entry): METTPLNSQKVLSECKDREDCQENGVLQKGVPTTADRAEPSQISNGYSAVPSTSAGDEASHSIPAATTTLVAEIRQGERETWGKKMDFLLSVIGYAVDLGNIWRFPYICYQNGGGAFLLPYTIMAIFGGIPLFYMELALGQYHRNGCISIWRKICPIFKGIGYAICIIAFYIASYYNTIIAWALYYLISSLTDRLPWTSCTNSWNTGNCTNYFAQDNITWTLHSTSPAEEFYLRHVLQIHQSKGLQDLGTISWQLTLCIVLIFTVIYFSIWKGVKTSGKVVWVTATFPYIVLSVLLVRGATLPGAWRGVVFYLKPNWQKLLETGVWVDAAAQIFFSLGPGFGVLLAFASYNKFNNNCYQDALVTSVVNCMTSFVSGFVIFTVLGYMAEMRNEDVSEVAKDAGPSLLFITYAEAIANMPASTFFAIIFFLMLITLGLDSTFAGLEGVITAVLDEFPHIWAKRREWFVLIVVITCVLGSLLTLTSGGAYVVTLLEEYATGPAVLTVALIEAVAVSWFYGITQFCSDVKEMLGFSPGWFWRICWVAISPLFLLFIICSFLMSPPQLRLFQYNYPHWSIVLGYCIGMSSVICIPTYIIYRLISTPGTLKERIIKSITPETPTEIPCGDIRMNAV
From the text: (§1) Compounds of the invention may be tested for their ability to inhibit reuptake of the monoamines dopamine, noradrenaline and serotonin in synaptosomes e.g. such as described in WO 97/30997 (NeuroSearch A/S) or WO 97/16451 (NeuroSearch A/S). Based on the balanced activity observed in these tests the compound of the invention is considered useful for the treatment, prevention or alleviation of a disease or a disorder or a condition of a mammal, including a human, which disease, disorder or condition is responsive to inhibition of monoamine neurotransmitter re-uptake in the central nervous system.
(§2) Compounds were tested for their ability to inhibit the reuptake of the monoamine neurotransmitters dopamine (DA) noradrenaline (NA) and serotonine (5-HT) in synaptosomes as described in WO 97/16451 (NeuroSearch A/S).
(§3) The test values are given as IC50 (the concentration (μM) of the test substance which inhibits the specific binding of ^3H-DA, ^3H-NA, or ^3H-5-HT by 50%).

[2] = target: T2, reuptake of dopamine (DA) in synaptosomes (Rattus norvegicus, UniProt P23977); test: Inhibition of dopamine reuptake in synaptosomes; type: biochemical; conditions: 3H-DA, read-out: DA-uptake IC50
T2 construct: in synaptosomes as described in WO 97/16451 (NeuroSearch A/S); from tissue
T2 sequence (P23977 whole entry): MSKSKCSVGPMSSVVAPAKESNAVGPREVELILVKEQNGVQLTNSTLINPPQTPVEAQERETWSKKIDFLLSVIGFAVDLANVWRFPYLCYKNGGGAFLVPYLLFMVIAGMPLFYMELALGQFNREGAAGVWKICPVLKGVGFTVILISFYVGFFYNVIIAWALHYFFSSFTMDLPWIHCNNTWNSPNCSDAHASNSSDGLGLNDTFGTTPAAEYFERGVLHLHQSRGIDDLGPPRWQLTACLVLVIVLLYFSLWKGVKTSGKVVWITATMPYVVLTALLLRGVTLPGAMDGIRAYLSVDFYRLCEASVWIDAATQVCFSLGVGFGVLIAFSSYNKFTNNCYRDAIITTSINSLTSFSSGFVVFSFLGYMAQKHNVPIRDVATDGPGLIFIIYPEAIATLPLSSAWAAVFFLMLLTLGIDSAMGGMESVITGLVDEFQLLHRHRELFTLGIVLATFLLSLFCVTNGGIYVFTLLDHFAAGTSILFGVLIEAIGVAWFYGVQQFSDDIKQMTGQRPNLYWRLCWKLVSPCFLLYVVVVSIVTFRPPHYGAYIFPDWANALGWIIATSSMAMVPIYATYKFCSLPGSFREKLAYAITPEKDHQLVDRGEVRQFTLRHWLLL
From the text: as §1, §2, §3

[3] = target: T3, reuptake of noradrenaline (NA) in synaptosomes (Rattus norvegicus, UniProt Q63380); test: Inhibition of noradrenaline reuptake in synaptosomes; type: biochemical; conditions: 3H-NA, read-out: NA-uptake IC50
T3 construct: in synaptosomes as described in WO 97/16451 (NeuroSearch A/S); from tissue
T3 sequence (Q63380 1-617): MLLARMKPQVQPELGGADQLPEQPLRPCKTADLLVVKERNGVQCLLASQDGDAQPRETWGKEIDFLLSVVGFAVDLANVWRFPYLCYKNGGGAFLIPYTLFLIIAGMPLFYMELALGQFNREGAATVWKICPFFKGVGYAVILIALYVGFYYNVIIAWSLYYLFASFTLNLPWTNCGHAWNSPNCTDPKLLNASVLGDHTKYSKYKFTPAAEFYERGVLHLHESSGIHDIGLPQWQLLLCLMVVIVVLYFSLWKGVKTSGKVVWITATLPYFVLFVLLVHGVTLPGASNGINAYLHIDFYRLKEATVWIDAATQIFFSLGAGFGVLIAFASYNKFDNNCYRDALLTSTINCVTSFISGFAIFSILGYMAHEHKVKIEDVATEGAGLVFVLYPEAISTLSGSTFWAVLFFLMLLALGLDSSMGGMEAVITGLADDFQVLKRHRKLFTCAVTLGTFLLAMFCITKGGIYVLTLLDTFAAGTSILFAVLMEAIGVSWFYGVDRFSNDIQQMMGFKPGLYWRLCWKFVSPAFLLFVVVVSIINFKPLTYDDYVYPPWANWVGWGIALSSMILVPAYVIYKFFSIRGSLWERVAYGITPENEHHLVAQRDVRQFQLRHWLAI
From the text: as §1, §2, §3

| SMILES | IC50 [1] [µM] | IC50 [2] [µM] | IC50 [3] [µM] | melting point [°C] |
| --- | --- | --- | --- | --- |
| C=C(C)n1c(=O)n(CCN2CCN(c3ccc4c(ccn4C)c3)CC2)c2ccccc21 [Compound A1, 1-Isopropenyl-3-{2-[4-(1-methyl-1H-indol-5-yl)-piperazin-1-yl]-ethyl}-1,3-dihydro-benzoimidazol-2-one] | 0.014 | > 1 | 0.61 | – |
| C=C(C)n1c(=O)n(CCN2CCN(c3ccc4cc[nH]c4c3)CC2)c2ccccc21 [Compound A5] | 0.0039 | 1.3 | 0.11 | 195 to 197 |
| C=C(C)n1c(=O)n(CCN2CCN(c3ccc4ccn(C)c4c3)CC2)c2ccccc21 [Compound A4, 1-Isopropenyl-3-{2-[4-(1-methyl-1H-indol-6-yl)-piperazin-1-yl]-ethyl}-1,3-dihydro-benzoimidazol-2-one] | 0.0048 | 1.3 | 0.062 | – |
| Cn1ccc2cc(N3CCN(CCn4c(=O)n(C5=CCCCC5)c5ccccc54)CC3)ccc21 [Compound A2, 1-Cyclohex-1-enyl-3-{2-[4-(1-methyl-1H-indol-5-yl)-piperazin-1-yl]-ethyl}-1,3-dihydro-benzoimidazol-2-one] | 0.0081 | 1.1 | 3 | – |
| Cn1ccc2ccc(N3CCN(CCn4c(=O)n(C5=CCCCC5)c5ccccc54)CC3)cc21 [Compound A3, 1-Cyclohex-1-enyl-3-{2-[4-(1-methyl-1H-indol-6-yl)-piperazin-1-yl]-ethyl}-1,3-dihydro-benzoimidazol-2-one] | 0.0033 | 1.7 | 1.1 | – |
| C=C(C)n1c(=O)n(CCN2CCN(c3ccc4[nH]ccc4c3)CC2)c2ccccc21 [Compound A8, 1-{2-[4-(1H-Indol-5-yl)-piperazin-1-yl]-ethyl}-3-isopropenyl-1,3-dihydro-benzoimidazol-2-one] | 0.34 | > 1 | 0.29 | – |
| O=c1n(CCN2CCN(c3ccc4[nH]ccc4c3)CC2)c2ccccc2n1C1=CCCCC1 [Compound A7, 1-Cyclohex-1-enyl-3-{2-[4-(1H-indol-5-yl)-piperazin-1-yl]-ethyl}-1,3-dihydro-benzoimidazol-2-one] | 0.19 | 2.3 | 1.2 | – |
| C=C(C)n1c(=O)n(CCN2CCN(c3ccc4[nH]ccc4c3)CC2)c2ccccc21 (as salt: fumaric acid salt) [Compound A8, 1-{2-[4-(1H-Indol-5-yl)-piperazin-1-yl]-ethyl}-3-isopropenyl-1,3-dihydro-benzoimidazol-2-one] | – | – | – | 112 to 114 |
| O=c1n(CCN2CCN(c3ccc4[nH]ccc4c3)CC2)c2ccccc2n1C1=CCCCC1 (as salt: fumaric acid salt) [Compound A7, 1-Cyclohex-1-enyl-3-{2-[4-(1H-indol-5-yl)-piperazin-1-yl]-ethyl}-1,3-dihydro-benzoimidazol-2-one] | – | – | – | 92 to 94 |
| O=c1n(CCN2CCN(c3ccc4cc[nH]c4c3)CC2)c2ccccc2n1C1=CCCCC1 [Compound A6, 1-Cyclohex-1-enyl-3-{2-[4-(1H-indol-6-yl)-piperazin-1-yl]-ethyl}-1,3-dihydro-benzoimidazol-2-one] | 0.0044 | 0.027 | 0.16 | 171 to 173 |
